{"source": "patent US20250213532A1", "about": "“5-METHOXY-N,N-[…][…] THE TREATMENT OF BIPOLAR DISORDER” (GH RESEARCH IRELAND LIMITED, priority 2022, published 2025)", "key": {"[1]": {"test_system": "patients with treatment-resistant major depressive disorder (TRD)", "assay": "Phase 1/2 clinical trial of inhaled 5-MeO-DMT in TRD: safety and tolerability", "conditions": "Part A", "procedure": "This trial was designed in two parts. Part A was an open-label, single-arm, single-dose Phase 1 trial with two dose levels (12 mg (n=4) and 18 mg (n=4)). […] The primary endpoint of Part B was to assess the effects on the severity of depression, as assessed by the proportion of patients in remission on day seven after dosing, defined as a MADRS total score of less than or equal to 10."}, "[2]": {"test_system": "patients with treatment-resistant major depressive disorder (TRD)", "assay": "Phase 1/2 clinical trial of inhaled 5-MeO-DMT in TRD: BPRS", "assay_type": "in vivo, human", "conditions": "for BPRS Emotional Withdrawal percentage improvement / BPRS Emotional Withdrawal score (sum): baseline 13", "source_text": "The Brief Psychiatric Rating Scale (BPRS) is intended to screen for psychiatric symptoms in a structured fashion. The scale is one of the most widely used scales to measure psychotic symptoms and was first published in 1962. The design has later been updated.\nThe 18 items (somatic concern, anxiety, emotional withdrawal, conceptual disorganization, guilt feelings, tension, mannerisms and posturing, grandiosity, depressive mood, hostility, suspiciousness, hallucinatory behaviour, motor retardation, uncooperativeness, unusual thought content, blunted affect, excitement and disorientation) are scored and each item is rated on a scale of 1-7.\nBased on the answers and the behaviours observed, a physician or psychologist will complete the BPRS form by ranking the severity of each area using a scale of one to seven: a score of one means an absence of signs or symptoms up to a score of seven that means it is present and at a severe level. If it is not possible to rate the specific signs or symptoms, a score of 0 or “Not assessed” is recorded.\nPatients were assigned to different groups.\nThis trial was designed in two parts."}, "[3]": {"test_system": "Escherichia coli WP2 uvrA pKM101", "assay": "Bacterial mutation test, Escherichia coli", "assay_type": "cell-based", "conditions": "up to 5000 pg/plate; absence and presence of rat liver S-9", "source_text": "These conditions included treatments at concentrations up to […] (the maximum recommended concentration according to current regulatory guidelines), in the absence and in the presence of a rat liver metabolic activation system (S-9)."}, "[4]": {"conditions": "12 mg n=4, 3 hours, baseline 11"}, "[5]": {"conditions": "12 mg n=4, 3 hours, baseline 14"}, "[6]": {"conditions": "12 mg n=4, 3 hours, baseline 18"}, "[7]": {"conditions": "12 mg n=4, 3 hours, baseline 25"}}, "data": [{"smiles": "COc1ccc2[nH]cc(CCN(C)C)c2c1", "note": "[5-MeO-DMT]", "values": [{"measurement": "Patients who experienced at least one ADR", "setting": "[1]; 12 mg single dose", "value": "3 of 4"}, {"measurement": "Patients who experienced at least one ADR", "setting": "[1]; 18 mg single dose", "value": "3 of 4"}, {"measurement": "BPRS Blunted Affect percentage improvement", "setting": "[2]; [4]", "value": 27, "unit": "%"}, {"measurement": "BPRS Blunted Affect score (sum)", "setting": "[2]; [4]", "value": 8}, {"measurement": "BPRS Emotional Withdrawal percentage improvement", "setting": "[2]; 12 mg n=4, 3 hours", "value": 15, "unit": "%"}, {"measurement": "BPRS Emotional Withdrawal score (sum)", "setting": "[2]; 12 mg n=4, 3 hours", "value": 11}, {"measurement": "BPRS Tension percentage improvement", "setting": "[2]; [5]", "value": 36, "unit": "%"}, {"measurement": "BPRS Tension score (sum)", "setting": "[2]; [5]", "value": 9}, {"measurement": "BPRS Guilt Feelings percentage improvement", "setting": "[2]; [6]", "value": 50, "unit": "%"}, {"measurement": "BPRS Guilt Feelings score (sum)", "setting": "[2]; [6]", "value": 9}, {"measurement": "BPRS Anxiety percentage improvement", "setting": "[2]; [7]", "value": 56, "unit": "%"}, {"measurement": "BPRS Anxiety score (sum)", "setting": "[2]; [7]", "value": 11}, {"measurement": "BPRS Blunted Affect score (sum)", "setting": "[2]; 12 mg n=4, Day 1, baseline 11", "value": 6}, {"measurement": "BPRS Emotional Withdrawal score (sum)", "setting": "[2]; 12 mg n=4, Day 1", "value": 8}, {"measurement": "BPRS Tension percentage improvement", "setting": "[2]; 12 mg n=4, Day 1, baseline 14", "value": 57, "unit": "%"}, {"measurement": "BPRS Tension score (sum)", "setting": "[2]; 12 mg n=4, Day 1, baseline 14", "value": 6}, {"measurement": "BPRS Guilt Feelings percentage improvement", "setting": "[2]; 12 mg n=4, Day 1, baseline 18", "value": 72, "unit": "%"}, {"measurement": "BPRS Guilt Feelings score (sum)", "setting": "[2]; 12 mg n=4, Day 1, baseline 18", "value": 5}, {"measurement": "BPRS Anxiety percentage improvement", "setting": "[2]; 12 mg n=4, Day 1, baseline 25", "value": 76, "unit": "%"}, {"measurement": "BPRS Anxiety score (sum)", "setting": "[2]; 12 mg n=4, Day 1, baseline 25", "value": 6}, {"measurement": "BPRS Blunted Affect score (sum)", "setting": "[2]; 12 mg n=4, Day 7, baseline 11", "value": 5}, {"measurement": "BPRS Emotional Withdrawal score (sum)", "setting": "[2]; 12 mg n=4, Day 7", "value": 6}, {"measurement": "BPRS Tension percentage improvement", "setting": "[2]; 12 mg n=4, Day 7, baseline 14", "value": 57, "unit": "%"}, {"measurement": "BPRS Tension score (sum)", "setting": "[2]; 12 mg n=4, Day 7, baseline 14", "value": 6}, {"measurement": "BPRS Guilt Feelings percentage improvement", "setting": "[2]; 12 mg n=4, Day 7, baseline 18", "value": 72, "unit": "%"}, {"measurement": "BPRS Guilt Feelings score (sum)", "setting": "[2]; 12 mg n=4, Day 7, baseline 18", "value": 5}, {"measurement": "BPRS Anxiety percentage improvement", "setting": "[2]; 12 mg n=4, Day 7, baseline 25", "value": 76, "unit": "%"}, {"measurement": "BPRS Anxiety score (sum)", "setting": "[2]; 12 mg n=4, Day 7, baseline 25", "value": 6}, {"measurement": "BPRS Emotional Withdrawal percentage improvement", "setting": "[2]; IDR n=8, 3 hours", "value": 38, "unit": "%"}, {"measurement": "BPRS Emotional Withdrawal score (sum)", "setting": "[2]; IDR n=8, 3 hours", "value": 8}, {"measurement": "BPRS Blunted Affect percentage improvement", "setting": "[2]; IDR n=8, 3 hours, baseline 15", "value": 27, "unit": "%"}, {"measurement": "BPRS Blunted Affect score (sum)", "setting": "[2]; IDR n=8, 3 hours, baseline 15", "value": 11}, {"measurement": "BPRS Tension percentage improvement", "setting": "[2]; IDR n=8, 3 hours, baseline 16", "value": 31, "unit": "%"}, {"measurement": "BPRS Tension score (sum)", "setting": "[2]; IDR n=8, 3 hours, baseline 16", "value": 11}, {"measurement": "BPRS Guilt Feelings percentage improvement", "setting": "[2]; IDR n=8, 3 hours, baseline 34", "value": 59, "unit": "%"}, {"measurement": "BPRS Guilt Feelings score (sum)", "setting": "[2]; IDR n=8, 3 hours, baseline 34", "value": 14}, {"measurement": "BPRS Anxiety percentage improvement", "setting": "[2]; IDR n=8, 3 hours, baseline 37", "value": 49, "unit": "%"}, {"measurement": "BPRS Anxiety score (sum)", "setting": "[2]; IDR n=8, 3 hours, baseline 37", "value": 19}, {"measurement": "BPRS Emotional Withdrawal score (sum)", "setting": "[2]; IDR n=8, Day 1", "value": 8}, {"measurement": "BPRS Blunted Affect score (sum)", "setting": "[2]; IDR n=8, Day 1, baseline 15", "value": 8}, {"measurement": "BPRS Tension percentage improvement", "setting": "[2]; IDR n=8, Day 1, baseline 16", "value": 31, "unit": "%"}, {"measurement": "BPRS Tension score (sum)", "setting": "[2]; IDR n=8, Day 1, baseline 16", "value": 11}, {"measurement": "BPRS Guilt Feelings percentage improvement", "setting": "[2]; IDR n=8, Day 1, baseline 34", "value": 68, "unit": "%"}, {"measurement": "BPRS Guilt Feelings score (sum)", "setting": "[2]; IDR n=8, Day 1, baseline 34", "value": 11}, {"measurement": "BPRS Anxiety percentage improvement", "setting": "[2]; IDR n=8, Day 1, baseline 37", "value": 57, "unit": "%"}, {"measurement": "BPRS Anxiety score (sum)", "setting": "[2]; IDR n=8, Day 1, baseline 37", "value": 16}, {"measurement": "BPRS Emotional Withdrawal score (sum)", "setting": "[2]; IDR n=8, Day 7", "value": 8}, {"measurement": "BPRS Blunted Affect score (sum)", "setting": "[2]; IDR n=8, Day 7, baseline 15", "value": 8}, {"measurement": "BPRS Tension percentage improvement", "setting": "[2]; IDR n=8, Day 7, baseline 16", "value": 38, "unit": "%"}, {"measurement": "BPRS Tension score (sum)", "setting": "[2]; IDR n=8, Day 7, baseline 16", "value": 10}, {"measurement": "BPRS Guilt Feelings percentage improvement", "setting": "[2]; IDR n=8, Day 7, baseline 34", "value": 71, "unit": "%"}, {"measurement": "BPRS Guilt Feelings score (sum)", "setting": "[2]; IDR n=8, Day 7, baseline 34", "value": 10}, {"measurement": "BPRS Anxiety percentage improvement", "setting": "[2]; IDR n=8, Day 7, baseline 37", "value": 54, "unit": "%"}, {"measurement": "BPRS Anxiety score (sum)", "setting": "[2]; IDR n=8, Day 7, baseline 37", "value": 17}, {"measurement": "Induction of mutation", "setting": "[3]", "value": "did not induce mutation"}]}]}
